According to US20020107197A1, “Ligands for G protein coupled receptors and methods of using them” (priority 2000, published 2002):

Key:
Swiss 3T3 cells = assay: DNA synthesis ([3H]thymidine incorporation) in parental and GFP-infected Swiss 3T3 cells; type: cell-based
Method: The effect of SPC and LPC on DNA synthesis was measured using [^3H] thymidine incorporation. Briefly, GPR4-ires-GFP- and GFP-Swiss 3T3 cells were plated in 96-well plates, serum-starved for 24 h, and treated with SPC, LPC, or other lipids in serum-free DMEM for 24 h. Cells were incubated with 0.75 μCi/ml [^3H]thymidine in serum-free DMEM for the last 18 h. Cells were harvested onto filter papers presoaked in 1% polyethylenimine using the automated cell harvester HARVEST 96. Incorporated [^3H]thymidine was counted in a 1450 Microbeta Trilux Liquid Scintillation and Luminescence Counter (Perkin-Elmer-Wallac, Inc.).

[1] = system: vector-transfected HEK293 cells; assay: SRE luciferase reporter in vector-transfected HEK293 cells; type: cell-based, human
Method: The serum-response element (SRE) reporter system is a sensitive assay for receptors of lipid factors (An et al. (1998) J Biol Chem 273, 7906-7910; An et al. (1999) Mol Pharmacol 55, 787-794). The SRE reporter system used herein (pSRE-Luc) was a gift from Dr. Songzhu An (UCSF), or may be purchased from Stratagene (La Jolla, Calif.). Both systems give identical results. HEK293 and HEK293GPR4 cells were cultured in RPMI1640 with 10% FBS in 10 cm dishes to ˜85% confluence. To the cells in each dish, pSRE-Luc (10 μg) was transfected in the presence of 60 μl LipofectAMINE reagent. Cells were seeded in 96-well plates 16 h after transfection, incubated for another 24 h in RPMI1640 with 10% FBS, and starved in serum-free medium for 16 h. SPC (dissolved in PBS to 10 mM) and other lipids (LPCs were dissolved in 70% ethanol. Other lipids were dissolved in PBS, 70-95% ethanol, or 100% MeOH) were diluted in serum free RPMI 1640 and added to the cells, followed by a 10 h incubation. Luciferase activity was measured in Microlite™ 1 plates (DYNEX Technologies, Inc., Virginia) using 60 μl of cell lysate and 20 μl luciferase substrate. PTX (100 ng/ml) was added during the 16 h serum starvation period and pcDNA1-C3 (encoding the C3-exoenzyme, 2 μg) was co-transfected with pSRE-Luc (10 μg). All experiments were performed in quadruplicate and were repeated at least three times. The Student's t test was performed using the GraphPad Instat software (San Diego, Calif.). p<0.05 was considered to be statistically significant.

GPR4 [2] = molecular target: T1, GPR4 (Homo sapiens, UniProt P46093); assay: SRE luciferase reporter in GPR4-transfected HEK293 cells; type: cell-based; settings: GPR4-transfected HEK293 cells; for EC50: read-out: EC50 for the activation of SRE; for activation of SRE reporter: lipid 1 μM
T1 construct: were used to generate full length GPR4, which was digested with EcoRI and Xba I and cloned into the pBs3HA vector; expressed in transfected cells
T1 sequence (P46093 whole entry): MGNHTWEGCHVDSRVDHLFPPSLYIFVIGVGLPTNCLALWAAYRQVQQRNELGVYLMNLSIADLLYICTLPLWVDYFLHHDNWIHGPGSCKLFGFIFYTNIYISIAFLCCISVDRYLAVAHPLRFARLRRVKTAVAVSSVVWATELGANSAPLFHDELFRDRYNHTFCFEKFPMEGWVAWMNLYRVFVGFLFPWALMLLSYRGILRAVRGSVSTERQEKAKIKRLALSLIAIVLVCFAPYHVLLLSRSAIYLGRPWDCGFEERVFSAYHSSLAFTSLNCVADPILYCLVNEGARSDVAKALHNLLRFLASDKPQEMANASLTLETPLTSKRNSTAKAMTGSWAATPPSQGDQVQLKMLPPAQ
Outline: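 HEK293 cells, vector-, GPR4- or TDAG8-transfected, co-transfected with pSRE-Luc, serum-starved 16 h, then given SPC or other lipids in serum-free RPMI 1640 for 10 h before luciferase readout from lysates. Where used, PTX (100 ng/ml) added during starvation; C3-exoenzyme plasmid co-transfected. Quadruplicates, Student's t test, p<0.05.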

endogenous PAF receptor = molecular target: T2, endogenous PAF receptor (Homo sapiens, UniProt P25105); assay: Calcium assay of the endogenous PAF receptor in MCF10A cells; type: cell-based; settings: parental MCF10A cells
T2 construct: endogenous in cells; host or cells: MCF10A (parental and GPR4-GFP-transfected)
T2 sequence (P25105 whole entry): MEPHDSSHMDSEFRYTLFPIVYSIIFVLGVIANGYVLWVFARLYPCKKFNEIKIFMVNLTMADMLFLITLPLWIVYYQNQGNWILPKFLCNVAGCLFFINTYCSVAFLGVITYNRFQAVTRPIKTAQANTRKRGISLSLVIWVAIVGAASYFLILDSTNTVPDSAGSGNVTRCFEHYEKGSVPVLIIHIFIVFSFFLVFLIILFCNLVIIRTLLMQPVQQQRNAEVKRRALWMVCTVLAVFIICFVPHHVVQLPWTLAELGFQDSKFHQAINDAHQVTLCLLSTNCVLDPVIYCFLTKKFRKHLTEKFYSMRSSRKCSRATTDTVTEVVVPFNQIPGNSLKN
Method: Measurement of [Ca^2+]i, was performed as described previously in Xu et al. (2000) Nat Cell Biol 2, 261-267. Briefly, pGPR4-GFP-transfected MCF10A cells were grown in specialized glass-bottom dishes (Bioptech, Inc., Butler, Pa.) and loaded with fura-2 in HEPES buffered saline. Using a dual-wavelength spectrofluorometer (RFK-6002, Photon Technology Int'l, So. Brunswick, N.J.) coupled to an inverted fluorescence microscope (Olympus, IX-70, Lake Success, N.Y.), GFP-positive cells were identified using an excitation wavelength of 488 nm, a dichroic 505 nm long-pass filter and an emitter filter at bandpass of 535 nm (Chroma Technology, Brattleboro, Vt.). Measurements of [Ca^2+]i were performed on individual GPR4-GFP positive cells at excitation wavelengths of 340 and 380 nm and an emission wavelength of 510 nm. Conversion of the 340/380 ratio value into [Ca^2+]i in nM was estimated by comparing the cellular fluorescence ratio with ratios acquired using fura-2 (free acid) in buffers containing known Ca^2+ concentrations. [Ca^2+]i was then calculated as described by Grynkiewicz et al. (1985) J Biol Chem 260, 3440-3450. All calcium assays were performed in the presence of 1 mM EGTA in the assay buffers. Therefore, intracellular calcium release, not calcium influx, was analyzed.
Therefore, it is unlikely that the increase in calcium induced by LPC was mediated by a PAF receptor.

GPR4 [3] = molecular target: T1, GPR4; assay: Transwell cell migration of GPR4-transfected HEK293 cells; type: cell-based; settings: 0.2 μM
Method: (§1) To determine whether GPR4 and/or TDGA8 can mediate the LPC-induced cell migration, we transfected HEK293 cells with GPR4 or TDAG8. Cell migration was performed in Transwell apparatus. GPR4-transfected HEK293 cells, and TDAG8-transfected HEK293 cells migrated to the low-phase of the membrane and the lower chamber of the Transwell in response to SPC and LPC, used at 0.2 μM.

TDAG8 [4] = molecular target: T3, TDAG8 (Homo sapiens, UniProt Q8IYL9); assay: Transwell cell migration of TDAG8-transfected HEK293 cells; type: cell-based; settings: TDAG8 overexpressed in HEK293 cells
T3 construct: expressed in transfected cells
T3 sequence (Q8IYL9 whole entry): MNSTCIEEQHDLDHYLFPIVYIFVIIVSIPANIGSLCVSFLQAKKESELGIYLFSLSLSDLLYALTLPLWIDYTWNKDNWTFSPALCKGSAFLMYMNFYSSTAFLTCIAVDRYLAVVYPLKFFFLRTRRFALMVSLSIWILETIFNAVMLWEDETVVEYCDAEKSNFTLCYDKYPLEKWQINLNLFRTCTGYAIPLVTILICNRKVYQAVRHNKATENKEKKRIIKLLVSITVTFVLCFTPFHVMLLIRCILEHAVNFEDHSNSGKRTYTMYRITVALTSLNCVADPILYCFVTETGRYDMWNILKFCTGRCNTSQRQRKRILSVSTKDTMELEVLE
Method: as §1

TDAG8 [5] = molecular target: T3, TDAG8; assay: TDAG8 receptor internalization; type: cell-based
Description: G protein coupled receptors undergo agonist-dependent desensitization and internalization.

OGR1 = molecular target: T4, OGR1 (Homo sapiens, UniProt Q15743); assay: MAP kinase reporter system in OGR1 co-transfected cells; type: cell-based
T4 construct: expressed in transfected cells
T4 sequence (Q15743 whole entry, species assumed): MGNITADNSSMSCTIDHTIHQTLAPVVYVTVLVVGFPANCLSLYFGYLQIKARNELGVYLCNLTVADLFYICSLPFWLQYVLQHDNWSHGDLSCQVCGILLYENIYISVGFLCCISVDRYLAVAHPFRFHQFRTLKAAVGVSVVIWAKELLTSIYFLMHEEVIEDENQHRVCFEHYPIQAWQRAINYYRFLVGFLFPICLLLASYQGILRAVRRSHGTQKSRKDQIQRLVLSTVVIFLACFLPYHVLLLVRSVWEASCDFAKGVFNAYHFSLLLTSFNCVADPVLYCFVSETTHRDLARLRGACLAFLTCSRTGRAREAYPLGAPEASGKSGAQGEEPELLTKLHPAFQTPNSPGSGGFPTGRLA

Compound | DNA synthesis response (in words) (Swiss 3T3 cells; GFP-expressing cells) | transcriptional activation of SRE (in words) [1] | EC50 (GPR4 [2]) [nM] | activation of SRE reporter (GPR4 [2]) [fold] | calcium increase through the endogenous PAF receptor in parental cells (endogenous PAF receptor) | increase of DNA synthesis (Swiss 3T3 cells; 3 μM, parental and GFP-infected cells) | cell migration in Transwell (in words) (GPR4 [3]) | increase of cell migration compared with control cells (TDAG8 [4]) | activation of SRE reporter ([1]; lipid 1 μM) [fold] | TDAG8 receptor internalization (TDAG8 [5]) | MAP kinase activation (reporter) (OGR1)
CCCCCCCCCCCCCCCC(=O)OC[C@@H](O)COP(=O)([O-])OCC[N+](C)(C)C [16:0-LPC] | did not respond significantly | not | 160 | 3.1 |  |  |  |  |  |  | 
CCCCCCCCCCCCC/C=C/[C@@H](O)[C@@H](N)COP(=O)([O-])OCC[N+](C)(C)C [SPC, Sphingosylphosphorylcholine] |  |  | 63 | 4 | not able to induce an increase in calcium | approximately 6.3 fold | increased cell migration | four to five-fold | ≤ 1.5 | induced TDAG8 receptor internalization | only achieved by SPC
lysophosphatidylcholine [LPC] |  |  |  |  | not able to induce an increase in calcium |  | increased cell migration | four to five-fold |  | not | weakly inhibitory
